Measurements reported in patent publication US12570659B2, “Bicyclic heteroaryl compounds useful as IRAK4 inhibitors” (BRISTOL-MYERS SQUIBB COMPANY, priority 2019, dated 2026).
pIC50: −log10 of the molar value.

Assays:
[1] = biological target: IRAK4 (Homo sapiens (Human), UniProt Q9NWZ3); assay: IRAK4 Inhibition Assay; assay type: biochemical; conditions: ATP 500 μM; IRAK4 0.6 nM; 60 min room temperature
Protocol: IRAK4 Inhibition Assay The assays were performed in U-bottom 384-well plates. […] The reaction was initiated by the combination of IRAK4 with substrates and test compounds. The reaction mixture was incubated at room temperature for 60 min. and terminated by adding 45 μL of 35 mM EDTA to each sample. The reaction mixture was analyzed on the Caliper LABCHIP® 3000 (Caliper, Hopkinton, MA) by electrophoretic separation of the fluorescent substrate and phosphorylated product. Inhibition data were calculated by comparison to no enzyme control reactions for 100% inhibition and vehicle-only reactions for 0% inhibition.

[2] = biological target: JAK3 kinase (Homo sapiens (Human), UniProt P52333); assay: JAK3 Homogeneous Time Resolved Fluorescence (HTRF) Assay; assay type: binding; conditions: for pIC50: competition binding with fluorescein-labeled ATP competitive probe; for Ratio of JAK3 IC50 to IRAK4 IC50: selectivity for IRAK4 over JAK3
JAK3 kinase, sequence (P52333 whole entry): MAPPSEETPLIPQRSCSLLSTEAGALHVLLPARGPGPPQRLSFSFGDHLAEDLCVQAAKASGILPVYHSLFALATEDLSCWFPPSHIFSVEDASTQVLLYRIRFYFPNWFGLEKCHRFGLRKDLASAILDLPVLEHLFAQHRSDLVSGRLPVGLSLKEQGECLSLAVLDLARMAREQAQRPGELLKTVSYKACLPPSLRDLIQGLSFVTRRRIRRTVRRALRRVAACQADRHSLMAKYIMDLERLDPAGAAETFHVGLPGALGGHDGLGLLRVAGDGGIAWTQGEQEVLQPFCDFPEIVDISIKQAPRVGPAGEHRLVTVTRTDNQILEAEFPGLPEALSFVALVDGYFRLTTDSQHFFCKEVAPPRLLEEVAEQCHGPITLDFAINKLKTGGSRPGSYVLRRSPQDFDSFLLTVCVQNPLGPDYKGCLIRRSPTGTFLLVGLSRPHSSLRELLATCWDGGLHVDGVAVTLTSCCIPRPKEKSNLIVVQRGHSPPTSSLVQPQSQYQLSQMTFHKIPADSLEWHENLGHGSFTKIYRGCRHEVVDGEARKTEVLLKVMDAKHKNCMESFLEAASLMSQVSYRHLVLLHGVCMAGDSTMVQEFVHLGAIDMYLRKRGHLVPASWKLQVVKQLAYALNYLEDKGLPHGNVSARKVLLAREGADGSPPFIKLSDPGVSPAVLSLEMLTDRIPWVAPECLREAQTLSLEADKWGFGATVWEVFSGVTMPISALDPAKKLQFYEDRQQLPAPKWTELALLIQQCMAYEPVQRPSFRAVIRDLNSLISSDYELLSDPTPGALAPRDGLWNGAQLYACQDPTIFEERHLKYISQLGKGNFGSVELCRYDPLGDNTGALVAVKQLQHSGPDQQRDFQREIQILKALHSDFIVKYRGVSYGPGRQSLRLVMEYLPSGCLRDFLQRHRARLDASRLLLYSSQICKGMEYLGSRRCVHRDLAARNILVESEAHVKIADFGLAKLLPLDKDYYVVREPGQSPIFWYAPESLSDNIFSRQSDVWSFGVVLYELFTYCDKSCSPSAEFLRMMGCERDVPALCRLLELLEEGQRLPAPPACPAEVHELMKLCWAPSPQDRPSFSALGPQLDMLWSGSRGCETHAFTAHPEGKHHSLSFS
Protocol: JAK3 Homogeneous Time Resolved Fluorescence (HTRF) Assay
A time resolved FRET-based competition binding assay was used to assess test article binding to JAK3 kinase. His-tagged or GST-tagged kinase at a concentration of 1 nM was incubated with 0.2 nM Tb-labeled detection antibody (anti-His or anti-GST), test compound, and fluorescein-labeled ATP competitive probe at a concentration corresponding to the probe's equilibrium dissociation constant for one hour. Fluorescence at 495 nm and 520 nm was measured using an EnVision microplate reader to quantify FRET between Tb-labeled detection antibody and fluorescein-labeled probe. Background subtracted FRET ratios were normalized to the maximum signal obtained in the absence of test compound. These values were converted to a percent inhibition. Percent inhibition was determined for test compounds at 11 concentrations. The IC50, defined as the concentration of the competing test compound needed to reduce specific binding of the probe by 50%, was calculated using the 4 parameter logistic equation to fit the data.

IRAK4, sequence (Q9NWZ3 whole entry, species assumed): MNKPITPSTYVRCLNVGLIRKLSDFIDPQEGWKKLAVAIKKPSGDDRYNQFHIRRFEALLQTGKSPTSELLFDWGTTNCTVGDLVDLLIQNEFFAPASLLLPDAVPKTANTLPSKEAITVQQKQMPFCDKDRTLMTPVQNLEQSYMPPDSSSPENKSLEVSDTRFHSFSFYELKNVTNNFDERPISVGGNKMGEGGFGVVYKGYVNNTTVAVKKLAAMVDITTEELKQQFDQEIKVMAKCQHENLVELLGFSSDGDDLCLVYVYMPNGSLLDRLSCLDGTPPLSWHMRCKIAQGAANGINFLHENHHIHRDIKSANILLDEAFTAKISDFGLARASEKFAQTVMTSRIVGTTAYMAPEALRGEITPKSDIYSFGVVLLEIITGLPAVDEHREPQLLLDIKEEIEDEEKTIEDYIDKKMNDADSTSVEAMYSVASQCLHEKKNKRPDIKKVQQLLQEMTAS

Structure (SMILES)	pIC50 [1]	pIC50 [2]	Ratio of JAK3 IC50 to IRAK4 IC50 [2]
CC(C)Nc1c(C(=O)NC[C@@H](F)C(C)(C)O)cnc2cc(-c3cncc(C#N)c3)nn12 [Example 124, (R)-2-(5-cyanopyridin-3-yl)-N-(2-fluoro-3-hydroxy-3-methylbutyl)-7-(isopropylamino) pyrazolo[1,5-a]pyrimidine-6-carboxamide]	6.44	< 4.30	>139
CC(C)(O)[C@H](F)CNC(=O)c1cnc2cc(-c3ccncc3F)nn2c1NCCC1CCCCO1 (stereo partly drawn) [Example 160, N—((R)-2-fluoro-3-hydroxy-3-methylbutyl)-2-(3-fluoropyridin-4-yl)-7-((2-(tetrahydro-2H-pyran-2-yl)ethyl)amino)pyrazolo[1,5-a]pyrimidine-6-carboxamide]	7.35	< 4.30	>1111
CC(C)Nc1c(C(=O)NC[C@@H](F)C(C)(C)O)cnn2cc(-c3cccnc3)nc12 [Example 99, (R)—N-(2-fluoro-3-hydroxy-3-methylbutyl)-8-(isopropylamino)-2-(pyridin-3-yl) imidazo[1,2-b]pyridazine-7-carboxamide]	7.18	< 5.00	>152
CC(C)Nc1c(C(=O)NC[C@@H](F)C(C)(C)O)cnn2cc(Nc3ccc(C#N)cn3)cc12 [Example 40, (R)-6-((5-cyanopyridin-2-yl)amino)-N-(2-fluoro-3-hydroxy-3-methylbutyl)-4-(isopropylamino) pyrrolo[1,2-b]pyridazine-3-carboxamide]	6.62	< 4.30	>208
COc1ncccc1-c1cc2ncc(C(=O)NC[C@@H](F)C(C)(C)O)c(NC(C)C)n2n1 [Example 143, (R)—N-(2-fluoro-3-hydroxy-3-methylbutyl)-7-(isopropylamino)-2-(2-methoxypyridin-3-yl)pyrazolo[1,5-a]pyrimidine-6-carboxamide]	6.20	< 5.00	>16
CC(C)Nc1c(C(=O)NC[C@@H](F)C(C)(C)O)cnc2cc(-c3cccc(Cl)n3)nn12 [Example 153, (R)-2-(6-chloropyridin-2-yl)-N-(2-fluoro-3-hydroxy-3-methylbutyl)-7-(isopropylamino) pyrazolo[1,5-a]pyrimidine-6-carboxamide]	5.91	< 5.00	>8
Cc1cc(-c2cc3c(NCCC(C)(C)O)c(C(=O)NC[C@@H](F)C(C)(C)O)cnn3c2)ccn1 [Example 23, (R)—N-(2-fluoro-3-hydroxy-3-methylbutyl)-4-((3-hydroxy-3-methylbutyl)amino)-6-(2-methylpyridin-4-yl)pyrrolo[1,2-b]pyridazine-3-carboxamide]	6.96	< 4.30	>455
Cc1cncc(-c2cc3ncc(C(=O)NC[C@@H](F)C(C)(C)O)c(NC(C)C)n3n2)c1 [Example 146, (R)—N-(2-fluoro-3-hydroxy-3-methylbutyl)-7-(isopropylamino)-2-(5-methylpyridin-3-yl)pyrazolo[1,5-a]pyrimidine-6-carboxamide]	6.32	< 4.30	>104
CC(C)(O)CCNc1c(C(=O)NC[C@@H](F)C(C)(C)O)cnn2cc(-c3ccncc3)cc12 [Example 28, (R)—N-(2-fluoro-3-hydroxy-3-methylbutyl)-4-((3-hydroxy-3-methylbutyl)amino)-6-(pyridin-4-yl)pyrrolo[1,2-b]pyridazine-3-carboxamide]	7.39	< 4.30	>1241
CC(C)(O)[C@H](F)CNC(=O)c1cnn2cc(-c3cccnc3)cc2c1NC1CCCC1 [Example 30, (R)-4-(cyclopentylamino)-N-(2-fluoro-3-hydroxy-3-methylbutyl)-6-(pyridin-3-yl)pyrrolo[1,2-b]pyridazine-3-carboxamide]	7.26	< 5.00	>182
CC(=O)N[C@H]1CC[C@H](NC(=O)c2cnn3cc(-c4cnc(F)cc4C)cc3c2NC(C)C)CC1 [Example 75, N-((1r,4r)-4-acetamidocyclohexyl)-6-(6-fluoro-4-methylpyridin-3-yl)-4-(isopropylamino)pyrrolo[1,2-b]pyridazine-3-carboxamide]	8.24	~4.66	~3793
CC(C)Nc1c(C(=O)NC[C@@H](F)C(C)(C)O)cnn2cc(-c3cccnc3F)nc12 [Example 103, (R)—N-(2-fluoro-3-hydroxy-3-methylbutyl)-2-(2-fluoropyridin-3-yl)-8-(isopropylamino)imidazo[1,2-b]pyridazine-7-carboxamide]	7.35	< 4.30	>1111
CC(C)Nc1c(C(=O)NC[C@@H](F)C(C)(C)O)cnn2cc(-c3cncnc3)cc12 [Example 4, (R)—N-(2-fluoro-3-hydroxy-3-methylbutyl)-4-(isopropylamino)-6-(pyrimidin-5-yl)pyrrolo[1,2-b]pyridazine-3-carboxamide]	7.72	< 4.30	>2632
CC(C)Nc1c(C(=O)NC[C@@H](F)C(C)(C)O)cnc2cc(-n3ccccc3=O)nn12 [Example 151, (R)—N-(2-fluoro-3-hydroxy-3-methylbutyl)-7-(isopropylamino)-2-(2-oxopyridin-1(2H)-yl)pyrazolo[1,5-a]pyrimidine-6-carboxamide]	6.24	< 4.30	>86
COc1cc(-c2cc3ncc(C(=O)NC[C@@H](F)C(C)(C)O)c(NC(C)C)n3n2)ccn1 [Example 148, (R)—N-(2-fluoro-3-hydroxy-3-methylbutyl)-7-(isopropylamino)-2-(2-methoxypyridin-4-yl)pyrazolo[1,5-a]pyrimidine-6-carboxamide]	7.21	< 5.00	>164
CC(C)Nc1c(C(=O)NC[C@@H](F)C(C)(C)O)cnn2cc(-c3nccs3)cc12 [Example 17, (R)—N-(2-fluoro-3-hydroxy-3-methylbutyl)-4-(isopropylamino)-6-(thiazol-2-yl)pyrrolo[1,2-b]pyridazine-3-carboxamide]	8.20		
CNC(=O)c1cnc2cc(-c3ccc4ncsc4c3)nn2c1NC(C)C [Example 121, 2-(benzo[d]thiazol-6-yl)-7-(isopropylamino)-N-methylpyrazolo[1,5-a]pyrimidine-6-carboxamide]	6.23		
CC(C)(O)[C@H](F)CNC(=O)c1cnn2cc(-c3ccccc3)cc2c1NC1CCCC1 [Example 29, (R)-4-(cyclopentylamino)-N-(2-fluoro-3-hydroxy-3-methylbutyl)-6-phenylpyrrolo[1,2-b] pyridazine-3-carboxamide]	6.74		
CNC(=O)[C@H]1CC[C@H](NC(=O)c2cnn3cc(-c4ccc(C(N)=O)nc4)cc3c2NC(C)C)CC1 [Example 95, 6-(6-carbamoylpyridin-3-yl)-4-(isopropylamino)-N-((1r,4r)-4-(methylcarbamoyl)cyclohexyl)pyrrolo[1,2-b]pyridazine-3-carboxamide]	7.46		
CNC(=O)c1cnc2cc(-c3ccnc(N4CCOCC4)c3)nn2c1NC(C)C [Example 119, 7-(isopropylamino)-N-methyl-2-(2-morpholinopyridin-4-yl)pyrazolo[1,5-a]pyrimidine-6-carboxamide]	5.53		
CNC(=O)c1cnc2cc(-c3ccccc3)nn2c1NC1CCCCC1 [Example 117, 7-(cyclohexylamino)-N-methyl-2-phenylpyrazolo[1,5-a]pyrimidine-6-carboxamide]	5.25		
CNC(=O)c1cnc2cc(-c3ccccc3)nn2c1N[C@H](CO)Cc1ccccc1 [Example 116, (S)-7-((1-hydroxy-3-phenylpropan-2-yl)amino)-N-methyl-2-phenylpyrazolo[1,5-a]pyrimidine-6-carboxamide]	5.79		
CC(C)Nc1c(C(=O)NC[C@@H](F)C(C)(C)O)cnc2cc(-c3nccs3)nn12 [Example 158, (R)—N-(2-fluoro-3-hydroxy-3-methylbutyl)-7-(isopropylamino)-2-(thiazol-2-yl)pyrazolo[1,5-a]pyrimidine-6-carboxamide]	7.70		
CNC(=O)[C@H]1CC[C@H](NC(=O)c2cnn3cc(-c4ccc(C#N)nc4)cc3c2NC(C)C)CC1 [Example 94, 6-(6-cyanopyridin-3-yl)-4-(isopropylamino)-N-((1r,4r)-4-(methylcarbamoyl)cyclohexyl) pyrrolo[1,2-b]pyridazine-3-carboxamide]	7.85		
CNC(=O)c1cnc2cc(-c3ccc(C#N)cc3)nn2c1NC(C)C [Example 118, 2-(4-cyanophenyl)-7-(isopropylamino)-N-methylpyrazolo[1,5-a] pyrimidine-6-carboxamide]	6.62		
CNC(=O)c1cnc2cc(-c3ccncc3)nn2c1NC(C)C [Example 120, 7-(isopropylamino)-N-methyl-2-(pyridin-4-yl)pyrazolo[1,5-a]pyrimidine-6-carboxamide]	6.39		
